Measured values reported in patent US20090104214A1 (priority 2004, published 2009).

Columns and labels:
PA63-LF binding = PA63-LF binding (Bacillus anthracis, UniProt P13423)
[1] = biological target: anthrax lethal toxin (PA83 and LF) (Bacillus anthracis, UniProt P13423); conditions: rat, in vivo, iv
[2] = test system: J774A.1 cells incubated with PA83 and LF; type: cell-based, mouse
[3] = biological target: purified recombinant PA83 (Bacillus anthracis, UniProt P13423)
LF = LF (Bacillus anthracis, UniProt P15917)
PA63 [4] = biological target: T1, PA63 (Bacillus anthracis, UniProt P13423)
PA63 [5] = biological target: T1, PA63; remark: listed apart in the source

Sequence of anthrax lethal toxin (PA83 and LF) (P13423 197-764 limits assumed): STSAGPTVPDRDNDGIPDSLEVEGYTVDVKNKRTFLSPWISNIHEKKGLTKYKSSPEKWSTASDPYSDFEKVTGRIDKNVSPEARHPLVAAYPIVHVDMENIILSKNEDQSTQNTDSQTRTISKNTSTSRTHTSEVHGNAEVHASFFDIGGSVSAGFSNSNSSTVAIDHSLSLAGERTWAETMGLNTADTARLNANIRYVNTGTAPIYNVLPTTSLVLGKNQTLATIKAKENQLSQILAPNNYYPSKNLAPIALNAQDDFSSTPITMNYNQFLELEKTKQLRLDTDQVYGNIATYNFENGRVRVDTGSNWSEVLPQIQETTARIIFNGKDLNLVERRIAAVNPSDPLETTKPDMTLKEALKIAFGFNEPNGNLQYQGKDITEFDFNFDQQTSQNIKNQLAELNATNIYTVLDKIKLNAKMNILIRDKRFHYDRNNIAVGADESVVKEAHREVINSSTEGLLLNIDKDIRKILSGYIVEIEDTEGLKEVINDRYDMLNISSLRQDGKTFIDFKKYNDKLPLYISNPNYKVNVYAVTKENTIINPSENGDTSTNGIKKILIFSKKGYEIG
T1 sequence (P13423 197-764 limits assumed): as above
Sequence of PA63-LF binding (P13423 197-764 limits assumed): as above
Sequence of purified recombinant PA83 (P13423 30-764 limits assumed): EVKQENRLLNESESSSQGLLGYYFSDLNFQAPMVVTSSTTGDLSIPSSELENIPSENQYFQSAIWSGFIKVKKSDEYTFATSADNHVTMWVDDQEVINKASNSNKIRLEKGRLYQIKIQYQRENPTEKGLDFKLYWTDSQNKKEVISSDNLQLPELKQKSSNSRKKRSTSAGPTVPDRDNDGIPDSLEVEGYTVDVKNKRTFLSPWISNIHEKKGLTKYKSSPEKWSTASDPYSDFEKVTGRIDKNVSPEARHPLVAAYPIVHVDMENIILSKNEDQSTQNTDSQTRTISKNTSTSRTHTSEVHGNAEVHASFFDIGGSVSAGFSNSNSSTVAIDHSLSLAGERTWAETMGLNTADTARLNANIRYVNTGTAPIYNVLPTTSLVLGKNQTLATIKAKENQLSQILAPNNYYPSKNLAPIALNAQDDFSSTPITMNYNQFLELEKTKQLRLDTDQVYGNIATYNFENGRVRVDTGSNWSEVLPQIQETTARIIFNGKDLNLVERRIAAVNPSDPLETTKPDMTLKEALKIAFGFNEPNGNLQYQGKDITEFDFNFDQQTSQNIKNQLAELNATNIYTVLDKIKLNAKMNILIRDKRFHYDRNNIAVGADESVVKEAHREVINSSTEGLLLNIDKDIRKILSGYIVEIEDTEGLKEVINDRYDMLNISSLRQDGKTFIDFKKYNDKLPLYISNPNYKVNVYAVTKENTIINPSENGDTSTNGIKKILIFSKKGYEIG
Sequence of LF (P15917 34-809 limits assumed): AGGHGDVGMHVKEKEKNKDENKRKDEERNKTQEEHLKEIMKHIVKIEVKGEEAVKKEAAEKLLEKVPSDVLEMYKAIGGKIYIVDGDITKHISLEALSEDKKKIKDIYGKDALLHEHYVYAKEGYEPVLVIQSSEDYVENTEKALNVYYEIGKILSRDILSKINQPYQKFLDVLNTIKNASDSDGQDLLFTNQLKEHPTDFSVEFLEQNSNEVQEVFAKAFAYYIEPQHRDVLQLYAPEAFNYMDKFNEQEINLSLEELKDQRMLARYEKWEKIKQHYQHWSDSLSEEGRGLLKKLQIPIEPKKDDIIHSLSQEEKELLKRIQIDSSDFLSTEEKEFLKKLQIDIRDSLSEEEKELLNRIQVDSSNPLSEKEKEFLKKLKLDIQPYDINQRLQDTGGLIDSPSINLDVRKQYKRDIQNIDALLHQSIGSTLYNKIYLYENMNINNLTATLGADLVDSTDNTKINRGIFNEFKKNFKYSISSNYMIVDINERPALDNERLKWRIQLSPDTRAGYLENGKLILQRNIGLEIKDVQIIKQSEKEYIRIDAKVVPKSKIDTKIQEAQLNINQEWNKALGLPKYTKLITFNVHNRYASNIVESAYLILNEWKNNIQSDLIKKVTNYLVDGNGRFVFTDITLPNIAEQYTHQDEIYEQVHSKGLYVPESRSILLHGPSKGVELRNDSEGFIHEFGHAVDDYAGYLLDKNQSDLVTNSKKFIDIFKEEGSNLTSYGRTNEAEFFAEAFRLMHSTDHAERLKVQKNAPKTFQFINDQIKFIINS

Substance | effective in blocking the interaction of PA with LF (summary statement) (PA63-LF binding) | inhibition of PA63-LF binding in ELISA, substitution of position 2 of MAP 3 (PA63-LF binding) | further results
AVMTYWWLDPPL | Particularly effective | – | inhibition of PA63-LF binding in ELISA, alanine scanning of MAP3 (PA63-LF binding): better efficiency
NAMTYWWLDPPL [MAP3V/A] | Particularly effective | – | neutralization of lethal toxin toxicity in rats [1]: completely neutralized toxicity; IC50 for inhibition of PA83/LF-induced cell mortality, compared with MAP3 [2]: one log lower than that of MAP3; inhibition of PA63-LF binding in ELISA, alanine scanning of MAP3 (PA63-LF binding): better efficiency
NDMTYWWLDPPL | Particularly effective | good efficiency | –
NEMTYWWLDPPL | Particularly effective | good efficiency | –
NGMTYWWLDPPL | Particularly effective | good efficiency | –
NNMTYWWLDPPL | Particularly effective | good efficiency | –
NPMTYWWLDPPL | Particularly effective | good efficiency | –
NQMTYWWLDPPL | Particularly effective | good efficiency | –
NSMTYWWLDPPL | Particularly effective | good efficiency | –
NTMTYWWLDPPL | Particularly effective | good efficiency | –
NVMTYWWLAPPL | Particularly effective | – | inhibition of PA63-LF binding in ELISA, alanine scanning of MAP3 (PA63-LF binding): better efficiency
NVMTYWWLDPPA | Particularly effective | – | inhibition of PA63-LF binding in ELISA, alanine scanning of MAP3 (PA63-LF binding): better efficiency
NVMTYWWLDPPL [MAP3] | Particularly effective | – | binding to purified recombinant PA83 in ELISA [3]: did not bind; neutralization of lethal toxin toxicity in rats [1]: completely neutralized toxicity; IC50 of inhibition of PA63-LF binding in ELISA, compared with MAP2 (PA63-LF binding): about one log lower than that of MAP2; binding to LF in ELISA (LF): did not bind; binding to PA63 in ELISA (PA63 [4]): specifically bound
NVMTYWWLDPPL [p3] | – | – | equilibrium association constant KA of peptide-PA63 binding (PA63 [5]): 3.4e+07 M⁻¹; koff (PA63 [5]): 0.0004 s⁻¹; kon (PA63 [5]): 14000 M⁻¹ s⁻¹
NYMTYWWLDPPL | Particularly effective | good efficiency | –
TLAYWWLTPSNP | Particularly effective | – | –
TLPYWWLTPSNP [MAP2] | Particularly effective | – | binding to purified recombinant PA83 in ELISA [3]: did not bind; binding to LF in ELISA (LF): did not bind; binding to PA63 in ELISA (PA63 [4]): specifically bound
TLPYWWLTPSNP [p2] | – | – | equilibrium association constant KA of peptide-PA63 binding (PA63 [5]): 7.2e+06 M⁻¹; koff (PA63 [5]): 0.0007 s⁻¹; kon (PA63 [5]): 5000 M⁻¹ s⁻¹
YWWLDPP | Particularly effective | – | –
YWWLEPP | Particularly effective | – | –
YWWLHPP | Particularly effective | – | –
YWWLKPP | Particularly effective | – | –
YWWLQPP | Particularly effective | – | –
YWWLTP | – | – | inhibition of PA63-LF binding in ELISA, shortening of MAP2 and re-elongation of YWWLTP (PA63-LF binding): minimal sequence able to inhibit PA-LF binding
YWWLTPP | Particularly effective | – | inhibition of PA63-LF binding in ELISA, shortening of MAP2 and re-elongation of YWWLTP (PA63-LF binding): superior inhibitory efficiency
YWWLTPPA | Particularly effective | – | inhibition of PA63-LF binding in ELISA, shortening of MAP2 and re-elongation of YWWLTP (PA63-LF binding): even better efficiency
YWWLTPPP [8mer peptide YWWLTPPP] | – | – | KA fold higher than that of lead 12mer p2 (PA63 [5]): about 10 fold; equilibrium association constant KA of peptide-PA63 binding (PA63 [5]): 6.8e+07 M⁻¹; koff (PA63 [5]): 0.0013 s⁻¹; kon (PA63 [5]): 88000 M⁻¹ s⁻¹
YWWLTPPP [MAP YWWLTPPP] | Particularly effective | – | neutralization of lethal toxin toxicity in rats [1]: completely neutralized toxicity; inhibition of PA63-LF binding in ELISA, shortening of MAP2 and re-elongation of YWWLTP (PA63-LF binding): even better efficiency
YWWLTPPQ | Particularly effective | – | inhibition of PA63-LF binding in ELISA, shortening of MAP2 and re-elongation of YWWLTP (PA63-LF binding): even better efficiency
